# Test results from PubChem BioAssay (NCI).
#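 Growth conditions: 96-well plates. Treatment: test compound, 48 hours, 5 concentrations. Analysis: linear interpolation between bracketing concentrations; unreached endpoints set to highest concentration. TGI: total growth inhibition.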
# Experiments:
# Assay in all cases: NCI tumour cell line growth inhibition, 48 h
# [1] = tested on: 786-0 renal
# [2] = tested on: A498 renal
# [3] = tested on: A549 NSCLC
# [4] = tested on: ACHN renal
# [5] = tested on: CAKI-1 renal
# [6] = tested on: CCRF-CEM leukemia
# [7] = tested on: COLO 205 colon
# [8] = tested on: DMS 114 small cell lung
# [9] = tested on: DMS 273 small cell lung
# [10] = tested on: EKVX NSCLC
# [11] = tested on: HCT-116 colon
# [12] = tested on: HCT-15 colon
# [13] = tested on: HL-60(TB) leukemia
# [14] = tested on: HOP-18 NSCLC
# [15] = tested on: HOP-92 NSCLC
# [16] = tested on: HT29 colon
# [17] = tested on: IGROV1 ovarian
# [18] = tested on: K-562 leukemia
# [19] = tested on: KM12 colon
# [20] = tested on: KM20L2 colon
# [21] = tested on: LOX IMVI melanoma
# [22] = tested on: LXFL 529 NSCLC
# [23] = tested on: M14 melanoma
# [24] = tested on: M19-MEL melanoma
# [25] = tested on: MALME-3M melanoma
# [26] = tested on: MOLT-4 leukemia
# [27] = tested on: NCI-H226 lung
# [28] = tested on: NCI-H23 lung
# [29] = tested on: NCI-H460 lung
# [30] = tested on: NCI-H522 lung
# [31] = tested on: OVCAR-4 ovarian
# [32] = tested on: OVCAR-5 ovarian
# [33] = tested on: OVCAR-8 ovarian
# [34] = tested on: RPMI-8226 leukemia
# [35] = tested on: RXF 393 renal
# [36] = tested on: RXF-631 renal
# [37] = tested on: SF-268 CNS
# [38] = tested on: SF-295 CNS
# [39] = tested on: SK-MEL-2 melanoma
# [40] = tested on: SK-MEL-28 melanoma
# [41] = tested on: SK-MEL-5 melanoma
# [42] = tested on: SK-OV-3 ovarian
# [43] = tested on: SN12C renal
# [44] = tested on: SNB-19 CNS
# [45] = tested on: SNB-75 CNS
# [46] = tested on: SNB-78 CNS
# [47] = tested on: SR leukemia
# [48] = tested on: SW-620 colon
# [49] = tested on: U251 CNS
# [50] = tested on: UACC-257 melanoma
# [51] = tested on: UACC-62 melanoma
# [52] = tested on: UO-31 renal
# [53] = tested on: DLD-1 colon
# [54] = tested on: HCC-2998 colon
# [55] = tested on: HOP-62 NSCLC
# [56] = tested on: OVCAR-3 ovarian
# [57] = tested on: SF-539 CNS
# [58] = tested on: TK-10 renal
# [59] = tested on: XF 498 CNS
smiles,measurement,setting,value
COC(=O)C(=O)C(C(=O)C(=O)Nc1ccccc1[N+](=O)[O-])c1nc2ccc([N+](=O)[O-])cc2[nH]c1=O (centres undefined),TGI,[1],> 100 µM
same,TGI,[2],> 100 µM
same,TGI,[3],> 100 µM
same,TGI,[4],> 100 µM
same,TGI,[5],> 100 µM
same,TGI,[6],> 100 µM
same,TGI,[7],> 100 µM
same,TGI,[8],> 100 µM
same,TGI,[9],> 100 µM
same,TGI,[10],> 100 µM
same,TGI,[11],> 100 µM
same,TGI,[12],> 100 µM
same,TGI,[13],> 100 µM
same,TGI,[14],> 100 µM
same,TGI,[15],> 100 µM
same,TGI,[16],> 100 µM
same,TGI,[17],> 100 µM
same,TGI,[18],> 100 µM
same,TGI,[19],> 100 µM
same,TGI,[20],> 100 µM
same,TGI,[21],> 100 µM
same,TGI,[22],> 100 µM
same,TGI,[23],> 100 µM
same,TGI,[24],> 100 µM
same,TGI,[25],> 100 µM
same,TGI,[26],> 100 µM
same,TGI,[27],> 100 µM
same,TGI,[28],> 100 µM
same,TGI,[29],> 100 µM
same,TGI,[30],> 100 µM
same,TGI,[31],> 100 µM
same,TGI,[32],> 100 µM
same,TGI,[33],> 100 µM
same,TGI,[34],> 100 µM
same,TGI,[35],> 100 µM
same,TGI,[36],> 100 µM
same,TGI,[37],> 100 µM
same,TGI,[38],> 100 µM
same,TGI,[39],> 100 µM
same,TGI,[40],> 100 µM
same,TGI,[41],> 100 µM
same,TGI,[42],> 100 µM
same,TGI,[43],> 100 µM
same,TGI,[44],> 100 µM
same,TGI,[45],> 100 µM
same,TGI,[46],> 100 µM
same,TGI,[47],> 100 µM
same,TGI,[48],> 100 µM
same,TGI,[49],> 100 µM
same,TGI,[50],> 100 µM
same,TGI,[51],> 100 µM
same,TGI,[52],> 100 µM
O=C(c1ccccc1)c1nnn(Cc2ccccc2Cn2nnc(C(=O)c3ccccc3)c2C(=O)c2ccccc2)c1C(=O)c1ccccc1,TGI,[1],> 100 µM
same,TGI,[2],> 100 µM
same,TGI,[3],> 100 µM
same,TGI,[4],> 100 µM
same,TGI,[5],> 100 µM
same,TGI,[6],> 100 µM
same,TGI,[7],> 100 µM
same,TGI,[53],> 100 µM
same,TGI,[8],> 100 µM
same,TGI,[9],> 100 µM
same,TGI,[10],> 100 µM
same,TGI,[54],> 100 µM
same,TGI,[11],> 100 µM
same,TGI,[12],> 100 µM
same,TGI,[13],> 100 µM
same,TGI,[14],> 100 µM
same,TGI,[55],> 100 µM
same,TGI,[15],> 100 µM
same,TGI,[16],> 100 µM
same,TGI,[17],> 100 µM
same,TGI,[18],> 100 µM
same,TGI,[19],> 100 µM
same,TGI,[20],> 100 µM
same,TGI,[21],> 100 µM
same,TGI,[22],> 100 µM
same,TGI,[23],> 100 µM
same,TGI,[24],> 100 µM
same,TGI,[25],> 100 µM
same,TGI,[26],> 100 µM
same,TGI,[27],> 100 µM
same,TGI,[28],> 100 µM
same,TGI,[29],> 100 µM
same,TGI,[30],> 100 µM
same,TGI,[56],> 100 µM
same,TGI,[31],> 100 µM
same,TGI,[32],> 100 µM
same,TGI,[33],> 100 µM
same,TGI,[34],> 100 µM
same,TGI,[37],> 100 µM
same,TGI,[38],> 100 µM
same,TGI,[57],> 100 µM
same,TGI,[39],> 100 µM
same,TGI,[40],> 100 µM
same,TGI,[41],> 100 µM
same,TGI,[42],> 100 µM
same,TGI,[43],> 100 µM
same,TGI,[44],> 100 µM
same,TGI,[45],> 100 µM
same,TGI,[46],> 100 µM
same,TGI,[47],> 100 µM
same,TGI,[48],> 100 µM
same,TGI,[58],> 100 µM
same,TGI,[49],> 100 µM
same,TGI,[50],> 100 µM
same,TGI,[51],> 100 µM
same,TGI,[52],> 100 µM
COC(=O)/C(C#N)=C1\CCC(OC)N1C (centres undefined),TGI,[1],> 100 µM
same,TGI,[3],> 100 µM
same,TGI,[4],> 100 µM
same,TGI,[5],> 100 µM
same,TGI,[6],> 100 µM
same,TGI,[7],> 100 µM
same,TGI,[53],> 100 µM
same,TGI,[8],> 100 µM
same,TGI,[9],> 100 µM
same,TGI,[10],> 100 µM
same,TGI,[54],> 100 µM
same,TGI,[11],> 100 µM
same,TGI,[12],> 100 µM
same,TGI,[13],> 100 µM
same,TGI,[14],> 100 µM
same,TGI,[55],> 100 µM
same,TGI,[16],> 100 µM
same,TGI,[17],> 100 µM
same,TGI,[18],> 100 µM
same,TGI,[19],> 100 µM
same,TGI,[20],> 100 µM
same,TGI,[21],> 100 µM
same,TGI,[22],> 100 µM
same,TGI,[23],> 100 µM
same,TGI,[24],> 100 µM
same,TGI,[25],> 100 µM
same,TGI,[26],> 100 µM
same,TGI,[27],> 100 µM
same,TGI,[28],> 100 µM
same,TGI,[29],> 100 µM
same,TGI,[30],> 100 µM
same,TGI,[56],> 100 µM
same,TGI,[31],> 100 µM
same,TGI,[32],> 100 µM
same,TGI,[33],> 100 µM
same,TGI,[34],> 100 µM
same,TGI,[35],> 100 µM
same,TGI,[37],> 100 µM
same,TGI,[38],> 100 µM
same,TGI,[57],> 100 µM
same,TGI,[39],> 100 µM
same,TGI,[40],> 100 µM
same,TGI,[41],> 100 µM
same,TGI,[42],> 100 µM
same,TGI,[43],> 100 µM
same,TGI,[44],> 100 µM
same,TGI,[45],> 100 µM
same,TGI,[46],> 100 µM
same,TGI,[48],> 100 µM
same,TGI,[58],> 100 µM
same,TGI,[49],> 100 µM
same,TGI,[50],> 100 µM
same,TGI,[51],> 100 µM
same,TGI,[52],> 100 µM
same,TGI,[59],> 100 µM
O=c1c2ccccc2oc2ccccc12 (tested in a mixture with another compound),TGI,[1],> 100 µM
same,TGI,[2],82.5 µM
same,TGI,[3],> 100 µM
same,TGI,[4],> 100 µM
same,TGI,[5],> 100 µM
same,TGI,[6],> 100 µM
same,TGI,[7],> 100 µM
same,TGI,[53],7.75 µM
same,TGI,[8],5.08 µM
same,TGI,[9],> 100 µM
same,TGI,[10],> 100 µM
same,TGI,[54],89.9 µM
same,TGI,[11],> 100 µM
same,TGI,[13],> 100 µM
same,TGI,[55],> 100 µM
same,TGI,[17],22.1 µM
same,TGI,[18],> 100 µM
same,TGI,[19],> 100 µM
same,TGI,[21],17 µM
same,TGI,[22],> 100 µM
same,TGI,[23],> 100 µM
same,TGI,[25],8.18 µM
same,TGI,[29],25.9 µM
same,TGI,[30],> 100 µM
same,TGI,[56],> 100 µM
same,TGI,[31],> 100 µM
same,TGI,[33],> 100 µM
same,TGI,[34],> 100 µM
same,TGI,[37],> 100 µM
same,TGI,[38],53.3 µM
same,TGI,[57],> 100 µM
same,TGI,[41],7.61 µM
same,TGI,[42],62.5 µM
same,TGI,[43],60.8 µM
same,TGI,[44],> 100 µM
same,TGI,[45],7.58 µM
same,TGI,[47],> 100 µM
same,TGI,[48],> 100 µM
same,TGI,[50],9.31 µM
same,TGI,[51],> 100 µM
same,TGI,[52],> 100 µM
